Where “and” joins values, the source holds several entries; their conditions need not be identical. Identical values can stand only once.
Columns and labels:
Candida albicans = assay: MIC of AmB and DexOx-AmB conjugates (NCCLS M27A2E); type: cell-based; conditions: 48 hours
Excerpt: The “minimal inhibitory concentration” or “MIC” is defined as the lowest drug concentration that results in complete inhibition of visible growth of a microorganism.

C. albicans = assay: Spectrum of antifungal activity, MIC after 8 hours; type: cell-based; conditions: formulation
C. glabrata = assay: Spectrum of antifungal activity, MIC after 8 hours; type: cell-based; conditions: formulation
Protocol: (§1) In order to determine the spectrum of antifungal activity of the nanoparticles functionalized with amphotericin B, they were tested against four strains of Candida, namely: C parapsilosis, C krusei, C glabrata, and C tropicalis. The MIC values were determined after 8 hours of incubation with AmB, DexOx-AmB conjugate, unconjugated silica nanoparticles, and silica nanoparticles functionalized with DexOx-AmB.

C. krusei = assay: Spectrum of antifungal activity, MIC after 8 hours; type: cell-based; conditions: formulation
Protocol: as §1

C. parapsilosis = assay: Spectrum of antifungal activity, MIC after 8 hours; type: cell-based; conditions: formulation
Protocol: as §1

C. tropicalis = assay: Spectrum of antifungal activity, MIC after 8 hours; type: cell-based; conditions: formulation
Protocol: as §1

[1] = The Merck Index 1989; cited from earlier work
[2] = test system: Klebsiella pneumoniae ATCC 10031; assay: MIC of DexOx-antibiotic conjugates and free drugs; type: cell-based; conditions: K. pneumoniae
Protocol: (§2) To evaluate the antibacterial activity of DexOx-Amp, DexOx-Van and DexOx-Gen, the minimal inhibitory concentration (MIC) was determined for each of the conjugates and compared with each of MIC values obtained for Amp, Van and Gen. The tests were performed against 5×10^5 cells/mL (in 0.2 mL of medium) of Staphylococcus aureus ATCC 6538 (S. aureus), Pseudomonas aeruginosa ATCC 15442 (P. aeruginosa), Klebsiella pneumoniae ATCC 10031 (K. pneumoniae) or Escherichia coli ATCC 25922 (E. coli), with concentrations of the drug between 0 and 120 μg/mL. The microorganisms were incubated at 37° C. for 18 h, and the absorbance at 600 nm was monitored every 30 min.

[3] = test system: Pseudomonas aeruginosa ATCC 15442; assay: MIC of DexOx-antibiotic conjugates and free drugs; type: cell-based; conditions: P. aeruginosa
Protocol: as §2

amphotericin B [AmB]
MIC (μg of conjugate/ml) (Candida albicans; 30° C., n=6): 0.9 ± 0.2 μg of conjugate/ml | MIC (Candida albicans; unconjugated (soluble) AmB): 0.9 µg/mL and 0.9 ± 0.2 µg/mL | Minimum Inhibitory Concentration (MIC) (C. albicans): 0.3 | Minimum Inhibitory Concentration (MIC) (C. glabrata): 0.03 | Minimum Inhibitory Concentration (MIC) (C. krusei): 0.1 | Minimum Inhibitory Concentration (MIC) (C. parapsilosis): 0.3 | Minimum Inhibitory Concentration (MIC) (C. tropicalis): 0.08 | water solubility limit [1]: 100 µg/mL

CC1(C)S[C@@H]2[C@H](NC(=O)[C@H](N)c3ccccc3)C(=O)N2[C@H]1C(=O)O [Amp, ampicillin]
MIC ([2]; Klebsiella pneumoniae, ATCC10031, free drug): 20 to 40 µg/mL | MIC ([3]; Pseudomonas aeruginosa, ATCC15442, free drug): > 120 µg/mL

gentamicin
MIC free drug (μg/mL) [2]: MIC < 2 μg/mL | MIC free drug (μg/mL) [3]: MIC < 2 μg/mL

Source: US20130216600A1, “ANTIMICROBIAL NANOPARTICLE CONJUGATES” (priority 2010, published 2013)
